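Values below derive from 48-hour exposures of cells grown in 96-well plates, with endpoints linearly interpolated between the two concentrations bracketing the appropriate inhibition level. Abbreviation: GI50, concentration required for 50% inhibition of growth. TGI: total growth inhibition.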
Experiments:
Assay in all cases: NCI anticancer screen, dose series, 48 h
[1] = tested on: HCT-15 colon
[2] = tested on: NCI-H226 lung
[3] = tested on: HCC-2998 colon
[4] = tested on: NCI-H23 lung
[5] = tested on: COLO 205 colon
[6] = tested on: SNB-19 CNS
[7] = tested on: OVCAR-3 ovarian
[8] = tested on: ACHN renal
[9] = tested on: SK-MEL-5 melanoma
[10] = tested on: RPMI-8226 leukemia
[11] = tested on: A498 renal
[12] = tested on: EKVX NSCLC
[13] = tested on: MDA-MB-435
[14] = tested on: HS 578T breast
[15] = tested on: A549 NSCLC
[16] = tested on: MCF7 breast
[17] = tested on: KM12 colon
[18] = tested on: UO-31 renal
[19] = tested on: M14 melanoma
[20] = tested on: UACC-62 melanoma
[21] = tested on: SN12C renal
[22] = tested on: SR leukemia
[23] = tested on: HOP-62 NSCLC
[24] = tested on: NCI/ADR-RES ovarian
[25] = tested on: SF-539 CNS
[26] = tested on: DU-145 prostate
[27] = tested on: BT-549 breast
[28] = tested on: SW-620 colon
[29] = tested on: OVCAR-4 ovarian
[30] = tested on: TK-10 renal
[31] = tested on: HT29 colon
[32] = tested on: SK-MEL-2 melanoma
[33] = tested on: SF-268 CNS
[34] = tested on: SF-295 CNS
[35] = tested on: MDA-MB-231 breast
[36] = tested on: PC-3 prostate
[37] = tested on: CCRF-CEM leukemia
[38] = tested on: SK-MEL-28 melanoma
[39] = tested on: MALME-3M melanoma
[40] = tested on: U251 CNS
[41] = tested on: LOX IMVI melanoma
[42] = tested on: HL-60(TB) leukemia
[43] = tested on: OVCAR-8 ovarian
[44] = tested on: OVCAR-5 ovarian
[45] = tested on: HCT-116 colon
[46] = tested on: SK-OV-3 ovarian
[47] = tested on: 786-0 renal
[48] = tested on: K-562 leukemia
[49] = tested on: IGROV1 ovarian
[50] = tested on: RXF 393 renal
[51] = tested on: SNB-75 CNS
[52] = tested on: CAKI-1 renal
[53] = tested on: NCI-H460 lung
[54] = tested on: MOLT-4 leukemia
[55] = tested on: UACC-257 melanoma
[56] = tested on: NCI-H522 lung

O=C(c1ccco1)c1nc2ccc(Cl)cc2[n+]([O-])c1C(F)(F)F
GI50 [1]: > 100 µM
TGI [1]: > 100 µM
GI50 [2]: > 100 µM
TGI [2]: > 100 µM
GI50 [3]: 88.4 µM
TGI [3]: > 100 µM
GI50 [4]: > 100 µM
TGI [4]: > 100 µM
GI50 [5]: > 100 µM
TGI [5]: > 100 µM
GI50 [6]: 72.6 µM
TGI [6]: > 100 µM
GI50 [7]: > 100 µM
TGI [7]: > 100 µM
GI50 [8]: > 100 µM
TGI [8]: > 100 µM
GI50 [9]: 90.3 µM
TGI [9]: > 100 µM
GI50 [10]: 31.1 µM
TGI [10]: > 100 µM
GI50 [11]: > 100 µM
TGI [11]: > 100 µM
GI50 [12]: 96.2 µM
TGI [12]: > 100 µM
GI50 [13]: > 100 µM
TGI [13]: > 100 µM
GI50 [14]: > 100 µM
TGI [14]: > 100 µM
GI50 [15]: > 100 µM
TGI [15]: > 100 µM
GI50 [16]: 30.4 µM
TGI [16]: > 100 µM
GI50 [17]: > 100 µM
TGI [17]: > 100 µM
GI50 [18]: > 100 µM
TGI [18]: > 100 µM
GI50 [19]: > 100 µM
TGI [19]: > 100 µM
GI50 [20]: > 100 µM
TGI [20]: > 100 µM
GI50 [21]: > 100 µM
TGI [21]: > 100 µM
GI50 [22]: 66.3 µM
TGI [22]: > 100 µM
GI50 [23]: 91.3 µM
TGI [23]: > 100 µM
GI50 [24]: > 100 µM
TGI [24]: > 100 µM
GI50 [25]: > 100 µM
TGI [25]: > 100 µM
GI50 [26]: > 100 µM
TGI [26]: > 100 µM
GI50 [27]: > 100 µM
TGI [27]: > 100 µM
GI50 [28]: > 100 µM
TGI [28]: > 100 µM
GI50 [29]: > 100 µM
TGI [29]: > 100 µM
GI50 [30]: 62.7 µM
TGI [30]: > 100 µM
GI50 [31]: > 100 µM
TGI [31]: > 100 µM
GI50 [32]: > 100 µM
TGI [32]: > 100 µM
GI50 [33]: 50.1 µM
TGI [33]: > 100 µM
GI50 [34]: > 100 µM
TGI [34]: > 100 µM
GI50 [35]: 59.1 µM
TGI [35]: > 100 µM
GI50 [36]: 37.1 µM
TGI [36]: > 100 µM
GI50 [37]: 39.4 µM
TGI [37]: > 100 µM
GI50 [38]: > 100 µM
TGI [38]: > 100 µM
GI50 [39]: > 100 µM
TGI [39]: > 100 µM
GI50 [40]: 69.8 µM
TGI [40]: > 100 µM
GI50 [41]: > 100 µM
TGI [41]: > 100 µM
GI50 [42]: > 100 µM
TGI [42]: > 100 µM
GI50 [43]: 64.9 µM
TGI [43]: > 100 µM
GI50 [44]: > 100 µM
TGI [44]: > 100 µM
GI50 [45]: > 100 µM
TGI [45]: > 100 µM
GI50 [46]: > 100 µM
TGI [46]: > 100 µM
GI50 [47]: > 100 µM
TGI [47]: > 100 µM
GI50 [48]: > 100 µM
TGI [48]: > 100 µM
GI50 [49]: > 100 µM
TGI [49]: > 100 µM
GI50 [50]: 27.4 µM
TGI [50]: 62 µM
GI50 [51]: 52.8 µM
TGI [51]: > 100 µM
GI50 [52]: 95.6 µM
TGI [52]: > 100 µM
GI50 [53]: 91.4 µM
TGI [53]: > 100 µM
GI50 [54]: > 100 µM
TGI [54]: > 100 µM
GI50 [55]: > 100 µM
TGI [55]: > 100 µM
GI50 [56]: > 100 µM
TGI [56]: > 100 µM

Source: PubChem BioAssay (NCI)
